Measured values as given in a melting point compilation (Tetko et al.; mined from patent text by program, amines drawn as free bases though some values may be those of a salt).

melting point	SMILES
144 to 148 °C	O=C(O)CCCCc1cc2cc(Cl)ccc2n1S(=O)(=O)c1ccccc1
146 to 149 °C	CC(=O)NC(C)=NC(=Nc1ccccc1)N1CCOCC1
153 to 154 °C	O=C(NCc1cccs1)c1ccc(Cl)cc1
138 to 144 °C	O=C1CC(c2c(-c3ccc[nH]3)[nH]c3ccc(Cl)cc23)C(=O)N1 (centres undefined)
90 °C	Cc1cc(Br)c(N)cc1Cl
> 300 °C	CCCc1nc(O)c(-c2ccc(C)cc2)c(O)n1
104 to 109 °C	COc1ccc([N+](=O)[O-])c(/C=C/c2cc(/C=C/c3ccc4cc[nH]c4c3)n[nH]2)c1
156 to 158 °C	COc1cccc2c1C(=O)OC2(C)O (centres undefined)
86 to 89 °C	OC(CCCCCOCc1ccccc1)c1cccc(OCc2ccc3ccccc3n2)c1 (centres undefined)
58 to 59 °C	Cc1cc(C)c2c(c1C)OC(C)(CC#N)C2 (centres undefined)
337 to 338 °C	COc1ccc(CNc2nc(Cl)cc(Cn3c(C(=O)c4cc(C)cc(C#N)c4)c(C(C)C)c(=O)[nH]c3=O)n2)cc1
107 to 109 °C	COc1cc(C)c(CC(=O)O)cc1C(C)C
219 to 222 °C	CCn1cc(C(=O)O)c(=O)c2cc(F)c(N3CCN(c4ccccc4OC)CC3)c(OC(F)F)c21
237 to 239 °C	COc1cc2nc(-c3cc(C)c(O)c(C)c3)[nH]c(=O)c2c(OC)c1CN1CCOCC1
93 to 94 °C	CC(O)CCCCn1cnc2c1c(=O)n(C)c(=O)n2C (centres undefined)
121 °C	CNC(=O)NCCNCC(O)COc1ccc(OCCOCC(C)C)cc1 (centres undefined)
> 240 °C	CCc1cc(-n2c(=O)[nH]c3cc(C(F)(F)F)c(Oc4ccccc4)cc32)c(OC)cc1OC
181 to 182 °C	Cc1ccc(-c2ccccc2-c2n[nH]c(=O)n2C)cc1
5 °C	CCCCCC1CCN([C@H]2CC[C@H](C(=O)OC)CC2)CC1
84 °C	Cc1ccc(S(=O)(=O)N2[C@@H](CC(=N)NO)CC[C@H]2c2ccc(F)cc2)cc1 (racemic)
164 to 166 °C	CCCCOc1nc(N)c2[nH]c(=O)n(CCN(C)Cc3cccc(CC(=O)O)c3)c2n1
64 to 65 °C	CC(CN=C(O)C(Cl)=C(Cl)C(=O)O)Cc1ccc(C(C)(C)C)cc1 (centres undefined)
198 to 199 °C	CC(C)Cn1c(CN2C(=O)c3ccccc3C2=O)c(-c2ccc(F)cc2)c2cc(OCc3ccccc3)ccc2c1=O
110 to 112 °C	Cc1ccc(S(=O)(=O)N(CCO)CCN(CCN(CCO)S(=O)(=O)c2ccc(C)cc2)S(=O)(=O)c2ccc(C)cc2)cc1
255 to 257 °C	COC(=O)c1ccc(C2C(C(=O)c3ccc(OC)cc3)=C(O)C(=O)N2c2nnc(C)s2)cc1 (centres undefined)

melting point	SMILES
218 to 221 °C	Cc1cc(C2(C(F)(F)F)CC2(C#N)C#N)ccc1NC(=O)c1cccc(I)c1C(=O)NC(C)C (centres undefined)
116 °C	O=C(Nc1nc(C(Cl)(Cl)Cl)ns1)C(F)(F)F
86 to 88 °C	CC(=O)OCC1OC(n2cc(C(Br)=CI)c(=O)[nH]c2=O)C(OC(C)=O)C1OC(C)=O (centres undefined)
127 to 129 °C	CCOC(=O)CCc1cc(Cl)ccc1C(=O)CCCNC(N)=O
59 to 64 °C	CC1Cc2c(NN)c(Cl)cc(Cl)c2O1 (centres undefined)
96 to 97 °C	Cc1nc(C(O)CNC(C)(C)C)ccc1OCc1ccccc1 (centres undefined)
215 to 217 °C	O=[N+]([O-])c1ccc(-c2nnc3ccc(Cl)nn23)s1
92 °C	COC(=O)Cc1cc([N+](=O)[O-])ccc1OC
194 to 196 °C	CN(C)C(=O)c1ccccc1Sc1c[nH]c2ccccc12
118 to 120 °C	Clc1ccc(-c2cc(C3CCN(CCc4ccccc4)CC3)no2)cc1
204 to 206 °C	Cc1[nH]cnc1CSCCNc1ncc(Cc2ccc(Cl)cc2)c(=O)[nH]1
97 °C	CC(C)c1ccc(S(=O)(=O)n2c(C(O)c3cccc(C(=O)O)c3)cc3cc(Cl)ccc32)cc1 (centres undefined)
258 °C	O=C1c2ccccc2C(=O)c2sc(-c3ccsc3)nc21
94 to 97 °C	CCOc1cc(Cl)nc(Sc2ccc(C)cc2)n1
190 to 192 °C	O=CNc1ccc2c(c1)nc(/C=C/c1ccccc1)n2-c1ccccn1
74 to 77 °C	COC1=NS(=O)(=O)N(C)C(OCCc2ccccc2)=N1
172 to 174 °C	NC(=O)N(CCCOc1ccc(C(=O)O)cc1)c1ccc(Cl)cc1
177 to 179 °C	CCCCOC(=O)COc1ccc(C(=O)Nc2cc(F)ccc2Sc2ccccc2-c2nnn[nH]2)cc1
150 to 152 °C	CC1(N)CCC(=O)N(C(=O)OCc2ccccc2)C1=O (centres undefined)
61 to 63 °C	C=C(C)c1cc(CC)n(-c2ccc([N+](=O)[O-])cc2)n1
225 °C	CC(C)(C)C1=NN(c2ccc(C(=O)O)cc2)C(c2ccccc2F)C1 (centres undefined)
228 °C	N#CC1=C(C2CCN(C(=O)c3ccccc3)CC2)Nc2n[nH]cc2C1c1cccc2nonc12 (centres undefined)
147 to 149 °C	CC(C)Cc1cnc(N)c([N+](=O)[O-])c1
118 to 120 °C	CC(C)(C)NC(=O)N(C(=O)C1CCC2C3CC=C4C=C(C(=O)O)CCC4(C)C3CCC12C)C(C)(C)C (centres undefined)
147 to 148 °C	Oc1ccccc1-c1cc(-c2ccc(F)c(F)c2)cc(-c2ccco2)n1

melting point	SMILES
230 °C	O=C1Nc2cccnc2N(C(=O)CCl)c2cc(F)ccc21
164 °C	CC(O)(Cc1cncs1)c1ccc(Cl)cc1Cl (centres undefined)
187 to 190 °C	CC(=O)NC[C@H]1CN(c2cc(F)c(N3CCS(=O)(=O)CC3)c(F)c2)C(=O)O1
148 to 149 °C	N#Cc1ccc(-c2ccno2)cc1
182 to 184 °C	CC1=NC(NC(=O)Nc2cccc(C)c2)C(=O)N(CC(=O)C23CC4CC(CC(C4)C2)C3)c2c(C)cccc21 (centres undefined)
356 to 358 °C	Cc1c(-c2ccccc2)sc2nc(N)[nH]c(=O)c12
160 °C	CCOC(=O)NCCN1CCC(NC(=O)c2cc(Cl)c(N)c3c2OCCC3)CC1
104 to 107 °C	CN(CC1CCCCN1)C(=O)c1cc(OCC(F)(F)F)ccc1OCC(F)(F)F (centres undefined)
218 to 220 °C	CCc1cc(N2CCCCC2)c(S(C)(=O)=O)cc1C(=O)N=C(N)N
187 °C	COc1cc(C(=O)O)c(OC)c2c1C(C)(C)CCC2(C)C
123 to 125 °C	C=CCc1c(F)ccc2c3c([nH]c12)C(CC)(CC(=O)O)OCC3 (centres undefined)
238 to 239 °C	CCCCc1nc2cc(C(=O)O)ccc2n1Cc1ccccc1Cl
70 to 73 °C	CN(C)CCn1ccc(-c2ccc(F)cc2)c1-c1ccncc1
216 °C	O=C1C=C2CCCCC2N1c1ccc(O)c(Cl)c1 (centres undefined)
252 °C	COC(=O)C(=O)c1cc(O)c(O)c(C#N)c1
193 to 196 °C	O=c1[nH]c2cc(Cl)ccc2c(=O)c(-c2ccccc2)c1O
67 to 70 °C	C#CCSc1nc(Cl)cc(Cl)n1
192 °C	Cc1cc(N)c([N+](=O)[O-])cc1NC(=O)OCCCl
> 300 °C	O=C(O)c1cn(-c2ccc(F)cc2)c2c(F)c(N3Cc4cccc(F)c4C3)c(F)cc2c1=O
255 to 257 °C	COc1ccc2c(c1)c1c3c(c(-c4ccccc4Cl)cc1n2CCO)C(=O)NC3=O
204 to 206 °C	Cc1cnc(C(N)=O)cn1
152 to 153 °C	COc1cc2ncnc(Oc3cccc(Cl)c3)c2cc1OC
185 to 195 °C	COC(=O)C1=C(C)NC(CC(=O)N2CCN(C3CCCC3)CC2)=C(C(=O)OC)C1c1c(Cl)cccc1Cl (centres undefined)
74 to 76 °C	COc1ccc(Cc2nc3cc(Cl)cc(CCO)c3o2)cc1OC1CCCC1
79 to 87 °C	COCNC(=O)c1snc(Cl)c1Cl

melting point	SMILES
132 to 133 °C	COC(=O)CCC(=O)c1ccc(-c2ccc(F)cc2)cc1
110 to 112 °C	O=c1cc(-c2ccccc2)oc2cc(OCC(O)CCCOC3CCCCO3)ccc12 (centres undefined)
140 °C	Cc1ccc(S(=O)(=O)Nc2ccccc2O)cc1
54 to 56 °C	Cc1cccc(NN)n1
210 °C	Cc1cccc(N(CCO)Cc2ccc3nc(N)n(Cc4nc(C)ccc4O)c3c2)c1
135 to 137 °C	COc1ccc2cnc(Cl)nc2c1C(C)C
137 to 140 °C	CN(C)C=C1C(=O)OC(=O)c2ccccc21
133 to 136 °C	CC(c1ccc(-c2ccccc2)o1)N(O)C(N)=O (centres undefined)
63 to 68 °C	OCCCC(O)c1ccccc1 (centres undefined)
79 °C	CCOC(=O)CC(=O)c1ccc(C)nn1
64 to 66 °C	CCOCOC1CCC2(C)C(=CCC3C2CCC2(C)C(C(C)CCCC(C)C)CCC32)C1 (centres undefined)
248 °C	NC(=O)CCc1ccc(-c2nc(=O)c3ccccc3s2)nc1
236 to 237 °C	O=C(O)c1ccc(C=Cc2cc3ccccc3s2)s1
139 to 140 °C	Cc1ccc(S(=O)(=O)Cc2cccc(C(F)(F)F)c2)cc1
113 to 114 °C	COc1ccc(-n2c(Cn3ccnc3)nc3ccccc32)cc1
251 to 252 °C	O=C(N[C@H](Cc1ccc(C(F)(F)F)cc1)[C@@H](O)c1ccc(F)cc1)c1c2ccccc2cc2ccccc12 (racemic)
160 to 170 °C	O=C(O)COc1c(Cl)cc2c(-c3ccccc3F)noc2c1Cl
169 to 172 °C	Cc1cccc2nc3c(cc12)oc1cccc(Cl)c13
165 to 167 °C	COc1ccccc1-n1c(=O)[nH]c2c(C(N)=O)nc(N[C@H]3CC[C@H](O)CC3)nc21
52 to 54 °C	CCCCN(O)C1CC(C)(C)N(C(C)=O)C(C)(C)C1
110 to 111 °C	CC(C)=CCOc1ccc(C2=C(CC(C)C)C(=O)NC2=O)cc1
219 to 221 °C	O=C(O)COc1cccc2c1CCc1sc(S(=O)(=O)C(c3ccccc3)c3ccccc3)nc1-2
63 to 66 °C	COc1nc2c(s1)C(=O)N(C(C)(C)C)C2=O

SMILES	melting point
CN(C)C(=O)Oc1ccc2c(NCCN3CCOCC3)noc2c1	150 °C
CNC(=O)N1N=C(c2ccc([N+](=O)[O-])cc2)c2cc(Cl)ccc2CC1C (centres undefined)	190 to 192 °C
Cc1c(C(=O)c2ccc(Br)c3ccccc23)c2cccc(C(F)(F)F)c2n1CCN1CCOCC1	160 °C
CN1CCC2(CC1)Nc1ccccc1S2	135 to 140 °C
CN1Cc2c(Cl)ncn2-c2cccnc2C1=O	247 to 248 °C
CN(C)CC#CCN1CCNC1=O	83 to 87 °C
